Results published in PubChem BioAssay AID1963970 (Molecular Pharmacology Branch, DTP, NCI, 2024).
Blank lines part the entries; values can stand above or below the molecule they belong to.

System: 931267-113-T-J1-PDC multicell spheroid viability
Assay: Anticancer human tumor 931267-113-T-J1-PDC patient-derived colon adenocarcinoma cell line growth inhibition [PI3K]
Settings: for IC50: curve of first compound; for viability, T/C: stronger effect = lower value
In short: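 Tumor cells were combined with HUVEC and MSCs into spheroids, then dosed with PI3K-inhibitor combinations over half-log ranges capped near clinical Cmax or 10 microM.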

[1] = second compound 0.00316 µM, first compound 0.0316 µM
[2] = second compound 0.00316 µM, first compound 0.1 µM
[3] = second compound 0.00316 µM, first compound 0.316 µM
[4] = second compound 0.00316 µM, first compound 1 µM
[5] = second compound 0.00316 µM, first compound 3.16 µM
[6] = second compound 0.00316 µM, first compound 10 µM
[7] = second compound 0.01 µM, first compound 0.0316 µM
[8] = second compound 0.01 µM, first compound 0.1 µM
[9] = second compound 0.01 µM, first compound 0.316 µM
[10] = second compound 0.01 µM, first compound 1 µM
[11] = second compound 0.01 µM, first compound 3.16 µM
[12] = second compound 0.01 µM, first compound 10 µM
[13] = second compound 0.0316 µM, first compound 0.0316 µM
[14] = second compound 0.0316 µM, first compound 0.1 µM
[15] = second compound 0.0316 µM, first compound 0.316 µM
[16] = second compound 0.0316 µM, first compound 1 µM
[17] = second compound 0.0316 µM, first compound 3.16 µM
[18] = second compound 0.0316 µM, first compound 10 µM
[19] = second compound 0.1 µM, first compound 0.0316 µM
[20] = second compound 0.1 µM, first compound 0.1 µM
[21] = second compound 0.1 µM, first compound 0.316 µM
[22] = second compound 0.1 µM, first compound 1 µM
[23] = second compound 0.1 µM, first compound 3.16 µM
[24] = second compound 0.1 µM, first compound 10 µM
[25] = second compound 0.316 µM, first compound 0.0316 µM
[26] = second compound 0.316 µM, first compound 0.1 µM
[27] = second compound 0.316 µM, first compound 0.316 µM
[28] = second compound 0.316 µM, first compound 1 µM
[29] = second compound 0.316 µM, first compound 3.16 µM
[30] = second compound 0.316 µM, first compound 10 µM
[31] = second compound 1 µM, first compound 0.0316 µM
[32] = second compound 1 µM, first compound 0.1 µM
[33] = second compound 1 µM, first compound 0.316 µM
[34] = second compound 1 µM, first compound 1 µM
[35] = second compound 1 µM, first compound 3.16 µM
[36] = second compound 1 µM, first compound 10 µM
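Further: viability read 7 days after compound addition.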

IC50 (second compound 0.00316 µM): 384 nM
IC50 (second compound 0.01 µM): 238 nM
IC50 (second compound 0.0316 µM): 93.2 nM
IC50 (second compound 0.1 µM): 37.8 nM
IC50 (second compound 0.316 µM): < 31.6 nM
IC50 (second compound 1 µM): < 31.6 nM
SMILES: C#Cc1c(F)ccc2cc(O)cc(-c3ncc4c(N5CC6CCC(C5)N6)nc(OCC56CCCN5CC(F)C6)nc4c3F)c12 (centres undefined) + COc1c(OCCCN2CCOCC2)ccc2c3n(c(=NC(=O)c4cnc(N)nc4)nc12)CCN3
viability, T/C [1]: 78.6%
viability, T/C [2]: 67.9%
viability, T/C [3]: 51.9%
viability, T/C [4]: 38%
viability, T/C [5]: 24.8%
viability, T/C [6]: 17.2%
viability, T/C [7]: 84.7%
viability, T/C [8]: 70.5%
viability, T/C [9]: 39.2%
viability, T/C [10]: 32.4%
viability, T/C [11]: 21.2%
viability, T/C [12]: 15.9%
viability, T/C [13]: 62.3%
viability, T/C [14]: 52.1%
viability, T/C [15]: 30.2%
viability, T/C [16]: 23.8%
viability, T/C [17]: 21.4%
viability, T/C [18]: 11%
viability, T/C [19]: 54%
viability, T/C [20]: 34.4%
viability, T/C [21]: 25.5%
viability, T/C [22]: 19%
viability, T/C [23]: 13.3%
viability, T/C [24]: 6.82%
viability, T/C [25]: 36.4%
viability, T/C [26]: 26.7%
viability, T/C [27]: 17.1%
viability, T/C [28]: 10.5%
viability, T/C [29]: 7.67%
viability, T/C [30]: 4.44%
viability, T/C [31]: 24.3%
viability, T/C [32]: 20.9%
viability, T/C [33]: 11.7%
viability, T/C [34]: 8.76%
viability, T/C [35]: 5.6%
viability, T/C [36]: 3.48%

IC50 (second compound 0.00316 µM): > 10000 nM
IC50 (second compound 0.01 µM): > 10000 nM
IC50 (second compound 0.0316 µM): > 10000 nM
IC50 (second compound 0.1 µM): > 10000 nM
IC50 (second compound 0.316 µM): < 31.6 nM
IC50 (second compound 1 µM): < 31.6 nM
SMILES: C=CC(=O)N1CCN(c2nc(=O)n(-c3c(C)ccnc3C(C)C)c3nc(-c4c(O)cccc4F)c(F)cc23)C(C)C1 (centres undefined) + COc1c(OCCCN2CCOCC2)ccc2c3n(c(=NC(=O)c4cnc(N)nc4)nc12)CCN3
viability, T/C [1]: 107%
viability, T/C [2]: 107%
viability, T/C [3]: 101%
viability, T/C [4]: 95.3%
viability, T/C [5]: 103%
viability, T/C [6]: 101%
viability, T/C [7]: 102%
viability, T/C [8]: 106%
viability, T/C [9]: 91.4%
viability, T/C [10]: 99.4%
viability, T/C [11]: 103%
viability, T/C [12]: 81.1%
viability, T/C [13]: 95.5%
viability, T/C [14]: 98.3%
viability, T/C [15]: 90.4%
viability, T/C [16]: 85.1%
viability, T/C [17]: 86.5%
viability, T/C [18]: 79.1%
viability, T/C [19]: 71.2%
viability, T/C [20]: 68.6%
viability, T/C [21]: 70.5%
viability, T/C [22]: 73.7%
viability, T/C [23]: 71.4%
viability, T/C [24]: 62.5%
viability, T/C [25]: 49.5%
viability, T/C [26]: 44.1%
viability, T/C [27]: 47.6%
viability, T/C [28]: 51.5%
viability, T/C [29]: 52.3%
viability, T/C [30]: 46.6%
viability, T/C [31]: 35.1%
viability, T/C [32]: 29.1%
viability, T/C [33]: 35.1%
viability, T/C [34]: 35.3%
viability, T/C [35]: 36.5%
viability, T/C [36]: 32.5%
